Legend:
ER = target: T1, ER (Homo sapiens, UniProt P03372); assay: 3H-estradiol displacement assay on MCF7 cells; type: binding
T1 sequence (P03372 1-595): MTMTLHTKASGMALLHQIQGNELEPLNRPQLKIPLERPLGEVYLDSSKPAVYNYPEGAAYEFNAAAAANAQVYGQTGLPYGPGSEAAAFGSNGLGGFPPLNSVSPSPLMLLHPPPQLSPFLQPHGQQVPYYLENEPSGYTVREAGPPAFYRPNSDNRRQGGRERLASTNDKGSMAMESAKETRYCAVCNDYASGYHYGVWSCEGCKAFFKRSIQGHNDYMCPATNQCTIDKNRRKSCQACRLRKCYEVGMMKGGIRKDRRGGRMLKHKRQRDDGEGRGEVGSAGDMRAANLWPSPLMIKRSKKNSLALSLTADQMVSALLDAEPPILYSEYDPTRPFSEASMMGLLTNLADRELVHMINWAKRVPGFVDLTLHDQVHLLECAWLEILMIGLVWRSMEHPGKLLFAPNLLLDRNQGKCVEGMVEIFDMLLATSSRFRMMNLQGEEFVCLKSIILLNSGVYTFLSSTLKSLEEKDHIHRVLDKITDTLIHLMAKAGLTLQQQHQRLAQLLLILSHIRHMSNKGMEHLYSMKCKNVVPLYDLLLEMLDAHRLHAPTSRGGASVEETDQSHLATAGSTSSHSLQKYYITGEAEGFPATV

GR = target: T2, GR (Homo sapiens, UniProt P04150); assay: 3H-dexamethasone displacement assay on DU145 cells; type: binding
T2 sequence (P04150 1-777): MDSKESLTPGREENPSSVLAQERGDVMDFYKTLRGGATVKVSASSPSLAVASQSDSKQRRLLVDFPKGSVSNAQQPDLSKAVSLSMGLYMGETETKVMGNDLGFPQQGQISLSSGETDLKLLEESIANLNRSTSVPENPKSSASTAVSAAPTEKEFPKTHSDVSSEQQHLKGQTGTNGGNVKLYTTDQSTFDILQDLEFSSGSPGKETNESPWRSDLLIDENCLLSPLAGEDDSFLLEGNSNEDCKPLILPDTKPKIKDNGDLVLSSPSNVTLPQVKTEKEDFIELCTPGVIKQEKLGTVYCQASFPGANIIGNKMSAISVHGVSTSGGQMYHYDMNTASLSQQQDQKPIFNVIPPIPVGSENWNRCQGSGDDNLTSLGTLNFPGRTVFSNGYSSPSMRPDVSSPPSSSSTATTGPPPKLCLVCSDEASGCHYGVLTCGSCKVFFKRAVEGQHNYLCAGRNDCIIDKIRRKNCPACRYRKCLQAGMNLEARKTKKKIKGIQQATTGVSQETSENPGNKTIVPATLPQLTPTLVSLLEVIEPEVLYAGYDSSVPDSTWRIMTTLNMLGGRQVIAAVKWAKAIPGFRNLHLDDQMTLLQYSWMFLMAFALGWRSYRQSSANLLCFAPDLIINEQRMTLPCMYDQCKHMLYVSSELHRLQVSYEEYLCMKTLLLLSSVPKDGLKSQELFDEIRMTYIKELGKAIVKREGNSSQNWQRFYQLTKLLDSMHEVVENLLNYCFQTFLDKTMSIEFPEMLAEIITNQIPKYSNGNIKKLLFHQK

AR = target: T3, AR (Homo sapiens, UniProt P10275); assay: 3H-dihydrotestosterone displacement assay on LNCaP-AR cells; type: binding
T3 sequence (P10275 1-920): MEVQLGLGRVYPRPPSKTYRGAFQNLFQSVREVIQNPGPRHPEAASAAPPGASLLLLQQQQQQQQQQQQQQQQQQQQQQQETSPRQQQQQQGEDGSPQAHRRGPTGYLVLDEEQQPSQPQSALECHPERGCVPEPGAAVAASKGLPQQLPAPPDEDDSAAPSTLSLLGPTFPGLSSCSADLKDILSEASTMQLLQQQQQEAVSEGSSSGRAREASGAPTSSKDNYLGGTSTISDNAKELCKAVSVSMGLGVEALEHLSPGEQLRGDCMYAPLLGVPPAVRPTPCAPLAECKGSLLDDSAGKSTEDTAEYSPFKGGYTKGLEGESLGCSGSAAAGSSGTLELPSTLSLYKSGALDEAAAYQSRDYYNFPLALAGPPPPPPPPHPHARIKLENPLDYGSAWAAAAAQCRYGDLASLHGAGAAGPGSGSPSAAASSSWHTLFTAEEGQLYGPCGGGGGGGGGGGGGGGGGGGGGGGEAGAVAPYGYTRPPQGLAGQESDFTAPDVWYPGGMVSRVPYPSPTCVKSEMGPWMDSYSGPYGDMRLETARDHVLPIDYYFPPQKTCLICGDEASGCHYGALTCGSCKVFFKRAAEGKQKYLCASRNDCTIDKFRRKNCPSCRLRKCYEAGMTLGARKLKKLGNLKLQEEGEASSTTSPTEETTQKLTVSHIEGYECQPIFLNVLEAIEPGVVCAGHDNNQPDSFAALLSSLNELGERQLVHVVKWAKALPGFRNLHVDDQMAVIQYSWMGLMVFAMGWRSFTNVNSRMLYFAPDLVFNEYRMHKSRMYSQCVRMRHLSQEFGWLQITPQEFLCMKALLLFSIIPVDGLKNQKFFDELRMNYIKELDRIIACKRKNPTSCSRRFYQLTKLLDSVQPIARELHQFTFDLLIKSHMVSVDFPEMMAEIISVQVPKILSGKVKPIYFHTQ

PR = target: T4, PR (Homo sapiens, UniProt P06401); assay: 3H-progesterone displacement assay on MCF7 cells; type: binding
T4 sequence (P06401 1-933): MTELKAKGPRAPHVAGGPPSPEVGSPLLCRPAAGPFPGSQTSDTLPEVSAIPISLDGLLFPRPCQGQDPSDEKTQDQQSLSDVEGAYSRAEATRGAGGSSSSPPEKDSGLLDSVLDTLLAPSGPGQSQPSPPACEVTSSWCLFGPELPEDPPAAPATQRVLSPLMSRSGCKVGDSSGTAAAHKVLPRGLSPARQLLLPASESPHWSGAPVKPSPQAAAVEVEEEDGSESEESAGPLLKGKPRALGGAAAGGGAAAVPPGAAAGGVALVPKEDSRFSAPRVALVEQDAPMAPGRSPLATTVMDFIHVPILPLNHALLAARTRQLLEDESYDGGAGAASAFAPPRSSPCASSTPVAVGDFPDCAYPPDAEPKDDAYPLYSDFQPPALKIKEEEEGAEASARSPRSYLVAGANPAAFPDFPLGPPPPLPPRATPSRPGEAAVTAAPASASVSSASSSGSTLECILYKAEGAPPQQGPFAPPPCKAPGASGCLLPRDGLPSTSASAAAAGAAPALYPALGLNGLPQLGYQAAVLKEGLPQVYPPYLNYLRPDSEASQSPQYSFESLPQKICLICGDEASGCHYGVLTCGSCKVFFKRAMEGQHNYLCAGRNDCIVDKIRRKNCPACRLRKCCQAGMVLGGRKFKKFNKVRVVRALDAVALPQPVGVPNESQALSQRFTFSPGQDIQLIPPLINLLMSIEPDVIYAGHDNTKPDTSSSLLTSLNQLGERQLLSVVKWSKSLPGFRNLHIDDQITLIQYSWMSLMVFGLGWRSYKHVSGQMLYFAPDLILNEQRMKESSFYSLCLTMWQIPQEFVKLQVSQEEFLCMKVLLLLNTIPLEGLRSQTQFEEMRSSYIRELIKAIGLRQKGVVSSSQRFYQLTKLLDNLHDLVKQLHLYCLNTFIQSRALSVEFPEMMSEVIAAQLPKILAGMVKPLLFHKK

[1] = test system: GR target genes (GILZ, FKBP5, Per1) in DU145 cells; assay: Real time PCR of GR target genes in DU145 cells; type: cell-based, human

COc1cccc2c1-c1ccc3c(c1C(Cc1ccc(F)cc1)O2)C(C)=CC(C)(C)N3 (centres unmarked) [YJH08, 5-(4-fluorobenzyl)-10-methoxy-2,2,4-trimethyl-2,5-dihydro-1H-chromeno[3,4-f]quinoline] gave a Ki (ER) of 19000 nM, a Ki (GR; Ki GR, 3H-dexamethasone displacement, DU145 cells, one site Ki fit) of 0.401 nM and a Ki (GR; Ki for GR) of ~0.4 nM. For the same compound, the Ki (AR) was 220 nM, the Ki (PR) was 555 nM and the “levels of GR target genes GILZ, FKBP5” value ([1]; DU145 cells, 10 μM, 6 h exposure, real time PCR) was “elevated”. For the same compound, the “induction of Per1” value ([1]; DU145 cells, YJH08 10 μM, 6 h exposure) was “induced by dexamethasone but not YJH08” and the “GR functional activity (overall assessment)” value ([1]; from target gene induction in DU145 cells) was “mild GR agonist”.
